# Test results: patent publication US10646600B2, “HER2 polypeptides useful for imaging and monitoring tumors and cancers” (GE HEALTHCARE LIMITED, priority 2013, dated 2020)
# “Also recorded” adds a separate entry of the source.
# Tests used:
# [1] = tested on: MCF7 and MCF7-p95HER2 xenografts; assay: PET-CT imaging and kinetic modeling, HER2 negative xenografts; type: in vivo, mice; settings: HER2 negative tumors
# Source text: Mice were anesthetized through isoflurane inhalation and scanned on a dedicated small animal PET-CT scanner (Siemens Multimodality Inveon, Erlangen, Germany). Low dose CT scans were first acquired (80 kVp, 0.5 mA, 220 degree rotation, 600 ms per degree exposure time, 80 μm reconstruction pixel size) for PET attenuation correction and to obtain an anatomical reference. PET images were acquired following a bolus i.v. injection of approximately 3.7 MBq [^18F]GE-226 in the tail vein. Dynamic emission scans were acquired in list mode format over 60 minutes. The acquired data were sorted into 0.5-mm sinogram bins and 19 time frames for image reconstruction by filtered back projection (4×15 seconds and 4×60 seconds followed by 11×300 seconds). The Siemens Inveon Research Workplace software was used for visualization of radiotracer uptake. 30 to 60-minute cumulative images of the dynamic data were employed to define 3-dimensional (3D) regions of interest (ROI). […] The count densities were averaged for all ROIs at each time point to obtain time versus radioactivity curves (TAC). Tumor TACs were normalized to injected dose measured by a VDC-304 dose calibrator (Veenstra Instruments, Joure, Netherlands) and normalized uptake was expressed as percentage injected dose per mL tissue (NUV; % ID/mL). […]
# HER2 positive cell lines = assay: In vitro uptake assay, HER2 positive cell lines; type: cell-based, human
# Source text: MCF7-vector (piRES), MCF7-p95HER2 and MCF7-HER2 cells were a kind gift of Jose Baselga's laboratory (17). MCF7 clones, MDA-MB-231 (ATCC, Manassas, Va.), MDA-MB-361 (Sigma-Aldrich), SKBR-3 (ATCC) and SKOV-3 (Sigma-Aldrich) cells were maintained in DMEM. AGS (Sigma-Aldrich), HGC-27 (Sigma-Aldrich), NCI-N87 (ATCC) and OE-33 (ATCC) cells were maintained in RPMI (Sigma-Aldrich). A431 cells (Sigma-Aldrich) were maintained in MEM Eagle medium (Sigma-Aldrich). Growth media were supplemented with 10% FCS (Lonza, Basel, Switzerland), glutamine and antibiotics (both Invitrogen, Paisley, United Kingdom). A431 cells were additionally supplemented with 1% non-essential amino acids. All cells were cultured at 37° C. in a humidified atmosphere containing 5% CO2.
# For baseline uptake in HER2 positive or negative lineages, 3×10^5 cells were seeded in complete media in 12-well plates (Corning, Tewksbury Mass.) and allowed to recover overnight. Cells were washed twice with serum-free medium and pulsed with 370 KBq in 500 μL serum-free medium for one h. […]
# Cells were washed with PBS, trypsinized, neutralized with complete medium and centrifuged. […] The radioactivity of 100 μL lysate was counted on a Packard Cobra II gamma counter (Perkin Elmer). Radioactivity was normalized to applied radioactivity and protein content, which was determined for each sample by BCA assay (Pierce, Rockford, Ill.). […]
substance,measurement,setting,value
[^18F]GE-226: HER2-binding 18F-radiolabelled Affibody molecule ZHER2:2891,NUV60,"[1]; PET, 60 minutes",6.1±0.7 % ID/mL
same,Ki (net irreversible uptake rate),[1]; two-tissue irreversible compartmental model,0.0069±0.0014 mL/cm^3/min
same,dependence of uptake/binding on EGFR,HER2 positive cell lines,independent of presence of other targets like EGFR; also recorded: independent of expression
